# Experimental data reported in ChEMBL document CHEMBL1201862, “PubChem BioAssay data set” (2004).
#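 Cells were grown in 96-well plates and exposed to each compound for 48 hours at five concentrations; endpoints were interpolated linearly between bracketing concentrations, or set to the highest concentration if not reached. GI50 marks 50% less growth.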 Calls of active or inactive are those of the source. Rule as the data show it: active = GI50 up to about 1.1 µM and inactive = higher.
# Tests used:
# Assay in all cases: growth of human tumour cells (NCI), 48 h
# A498 = test system: A498
# EKVX = test system: EKVX
# HOP-92 = test system: HOP-92
# OVCAR-3 = test system: OVCAR-3
# OVCAR-8 = test system: OVCAR-8
# RXF 393 = test system: RXF 393
# SF-268 = test system: SF-268
# SK-MEL-2 = test system: SK-MEL-2
# SK-MEL-5 = test system: SK-MEL-5
# SN12C = test system: SN12C
# TK-10 = test system: TK-10
# UO-31 = test system: UO-31
# COLO 205 = test system: COLO 205
# OVCAR-4 = test system: OVCAR-4
# OVCAR-5 = test system: OVCAR-5
Compound,GI50 (A498),GI50 (EKVX),GI50 (HOP-92),GI50 (OVCAR-3),GI50 (OVCAR-8),GI50 (RXF 393),GI50 (SF-268),GI50 (SK-MEL-2),GI50 (SK-MEL-5),GI50 (SN12C),GI50 (TK-10),GI50 (UO-31),GI50 (COLO 205),GI50 (OVCAR-4),GI50 (OVCAR-5)
Cc1csc(=S)n1OC(=O)NC1CCCCC1,> 92.5 µM (inactive),> 100 µM (inactive),7.89 µM (inactive),> 63.8 µM (inactive),> 100 µM (inactive),> 100 µM (inactive),> 87.1 µM (inactive),68.4 µM (inactive),> 51.4 µM (inactive),> 100 µM (inactive),> 100 µM (inactive),> 100 µM (inactive),,,
COC1(OC)CC2C(=O)N(Cc3ccccc3)C1CC2S(=O)(=O)c1ccccc1 (configuration not stated),,> 100 µM (inactive),,> 100 µM (inactive),> 100 µM (inactive),> 100 µM (inactive),,> 100 µM (inactive),> 100 µM (inactive),> 100 µM (inactive),> 100 µM (inactive),62.1 µM (inactive),> 100 µM (inactive),,
CCCCCCCCCC(=O)CC(=O)c1ccc(O)cc1O,,25.9 µM (inactive),27.7 µM (inactive),22.6 µM (inactive),22.6 µM (inactive),28.4 µM (inactive),40.8 µM (inactive),18.6 µM (inactive),17.6 µM (inactive),27.3 µM (inactive),40.8 µM (inactive),19.7 µM (inactive),> 100 µM (inactive),42.1 µM (inactive),21.1 µM (inactive)
Cc1ccc(NC(=S)SCCC(=O)O)cc1,> 100 µM (inactive),> 100 µM (inactive),,> 100 µM (inactive),> 100 µM (inactive),> 100 µM (inactive),71.6 µM (inactive),> 100 µM (inactive),,> 100 µM (inactive),> 100 µM (inactive),> 100 µM (inactive),> 100 µM (inactive),> 100 µM (inactive),> 100 µM (inactive)
CCOc1ccc(NC2=NC(=O)C(CC(=O)Nc3ccccc3[N+](=O)[O-])S2)cc1 (configuration not stated),> 100 µM (inactive),> 100 µM (inactive),> 100 µM (inactive),> 100 µM (inactive),> 100 µM (inactive),> 100 µM (inactive),> 100 µM (inactive),> 100 µM (inactive),> 100 µM (inactive),> 100 µM (inactive),> 100 µM (inactive),> 100 µM (inactive),,> 100 µM (inactive),> 100 µM (inactive)
CCNC1C2(CCCCC2)NC(=O)C12CCCCC2 (configuration not stated),> 100 µM (inactive),> 100 µM (inactive),,> 100 µM (inactive),> 100 µM (inactive),> 100 µM (inactive),,> 100 µM (inactive),> 100 µM (inactive),,> 100 µM (inactive),> 100 µM (inactive),,> 100 µM (inactive),> 100 µM (inactive)
CCC12C=CCN3CCC4(C(=C(C(=O)OC)C1)Nc1ccccc14)[C@H]32 (some centres not stated),29.6 µM (inactive),51.1 µM (inactive),23.4 µM (inactive),30.8 µM (inactive),,24.9 µM (inactive),19.5 µM (inactive),19.1 µM (inactive),27.2 µM (inactive),,68.9 µM (inactive),65.2 µM (inactive),18.4 µM (inactive),29.4 µM (inactive),70.8 µM (inactive)
O=C(NCCNCCO)N/N=C/c1ccccc1,,,,> 100 µM (inactive),> 100 µM (inactive),> 100 µM (inactive),> 100 µM (inactive),> 100 µM (inactive),> 100 µM (inactive),> 100 µM (inactive),> 100 µM (inactive),,,> 100 µM (inactive),
CCC12C=CCN3CCC4(c5cc(C6(C(=O)OC)CCCCCc7c6[nH]c6ccccc76)c(OC)cc5N(C)C4C(O)(C(=O)OC)C1OC(C)=O)C32 (configuration not stated),2.4 µM (inactive),3.57 µM (inactive),2.26 µM (inactive),3.83 µM (inactive),3.06 µM (inactive),1.64 µM (inactive),2.95 µM (inactive),1.74 µM (inactive),,3.63 µM (inactive),2.39 µM (inactive),2 µM (inactive),2.93 µM (inactive),2.95 µM (inactive),1.9 µM (inactive)
CCOC(=O)C(Cc1c[nH]c2cc([N+](=O)[O-])ccc12)NS(=O)(=O)c1ccc2ccccc2c1 (configuration not stated),29.2 µM (inactive),29.1 µM (inactive),19.9 µM (inactive),16.7 µM (inactive),21.4 µM (inactive),14.7 µM (inactive),20.2 µM (inactive),17.4 µM (inactive),,18.7 µM (inactive),26.4 µM (inactive),22.8 µM (inactive),18 µM (inactive),10.9 µM (inactive),
Nc1nc(N)c(-c2ccccc2)c(CCC(=O)Nc2ccc(Cl)cc2)n1,> 100 µM (inactive),> 100 µM (inactive),> 100 µM (inactive),> 100 µM (inactive),> 100 µM (inactive),,> 100 µM (inactive),> 100 µM (inactive),> 100 µM (inactive),> 100 µM (inactive),> 100 µM (inactive),> 100 µM (inactive),> 100 µM (inactive),> 100 µM (inactive),> 100 µM (inactive)
Cn1cc(NC(=O)c2cc(NC(=O)CCCCCCCCC(=O)Nc3cc(C(=O)Nc4cc(C(=O)NCCC(N)N)n(C)c4)n(C)c3)cn2C)cc1C(=O)NCCC(=N)N,,20.3 µM (inactive),36.6 µM (inactive),31 µM (inactive),21.4 µM (inactive),21.2 µM (inactive),20.5 µM (inactive),19.2 µM (inactive),4.74 µM (inactive),23.8 µM (inactive),18.2 µM (inactive),28.2 µM (inactive),20 µM (inactive),34.7 µM (inactive),21.4 µM (inactive)
O=c1cccccc1NCCNc1cccccc1=O,,> 100 µM (inactive),> 100 µM (inactive),> 100 µM (inactive),> 100 µM (inactive),68.2 µM (inactive),> 100 µM (inactive),> 100 µM (inactive),,13.6 µM (inactive),,> 100 µM (inactive),> 100 µM (inactive),> 100 µM (inactive),> 100 µM (inactive)
CCOC(=O)NC(=O)c1cn(C2OC(COC(=O)CCCCCCCCC(=O)OCC3OC(n4cc(C(=O)NC(=O)OCC)c(=O)[nH]c4=O)C4OC(C)(C)OC34)C3OC(C)(C)OC32)c(=O)[nH]c1=O (configuration not stated),> 100 µM (inactive),> 100 µM (inactive),67.1 µM (inactive),75.9 µM (inactive),78 µM (inactive),> 100 µM (inactive),70.5 µM (inactive),52.1 µM (inactive),54.1 µM (inactive),83.8 µM (inactive),> 100 µM (inactive),> 100 µM (inactive),,57 µM (inactive),> 100 µM (inactive)
OCc1ccc(C2CC(c3ccco3)=NN2c2ccccc2)o1 (configuration not stated),,> 100 µM (inactive),,> 100 µM (inactive),> 100 µM (inactive),> 100 µM (inactive),> 100 µM (inactive),> 100 µM (inactive),> 100 µM (inactive),> 100 µM (inactive),> 100 µM (inactive),> 100 µM (inactive),> 100 µM (inactive),> 100 µM (inactive),> 100 µM (inactive)
COc1cc2ccc3c4cc(OC)c(OC(C)C)cc4cnc3c2cc1OC,,> 100 µM (inactive),> 100 µM (inactive),> 100 µM (inactive),> 100 µM (inactive),> 100 µM (inactive),> 100 µM (inactive),> 100 µM (inactive),> 100 µM (inactive),> 100 µM (inactive),> 100 µM (inactive),> 100 µM (inactive),> 100 µM (inactive),> 100 µM (inactive),> 100 µM (inactive)
CCOC(=O)NC(=O)c1cn(CCOC(=O)CCCCCCCCC(=O)OCCn2cc(C(=O)NC(=O)OCC)c(=O)[nH]c2=O)c(=O)[nH]c1=O,> 100 µM (inactive),> 100 µM (inactive),> 100 µM (inactive),> 100 µM (inactive),> 100 µM (inactive),> 100 µM (inactive),> 100 µM (inactive),> 100 µM (inactive),> 100 µM (inactive),> 100 µM (inactive),> 100 µM (inactive),> 100 µM (inactive),,> 100 µM (inactive),> 100 µM (inactive)
COC(=O)C1=C(C)N(NC(=O)c2cccc(Cl)c2)C(C)(O)C12CCOC2=O (configuration not stated),> 100 µM (inactive),58.7 µM (inactive),,> 100 µM (inactive),> 100 µM (inactive),,> 100 µM (inactive),> 100 µM (inactive),> 100 µM (inactive),> 100 µM (inactive),,> 100 µM (inactive),,> 100 µM (inactive),> 100 µM (inactive)
COc1cc(C(C#N)NNC(=O)c2ccccc2O)ccc1O (configuration not stated),,,2.98 µM (inactive),3.44 µM (inactive),5.83 µM (inactive),0.349 µM (active),0.368 µM (active),2.48 µM (inactive),9.95 µM (inactive),7.03 µM (inactive),4.11 µM (inactive),0.701 µM (active),28.6 µM (inactive),5.33 µM (inactive),10.7 µM (inactive)
Cc1c(O)c(O)cc[n+]1C1OC(CO)C(O)C1O (configuration not stated),> 100 µM (inactive),> 100 µM (inactive),> 100 µM (inactive),,> 100 µM (inactive),> 100 µM (inactive),> 100 µM (inactive),> 100 µM (inactive),,> 100 µM (inactive),> 100 µM (inactive),> 100 µM (inactive),> 100 µM (inactive),> 100 µM (inactive),> 100 µM (inactive)
Cc1cccc(Cl)c1NC(=O)c1cccc([N+](=O)[O-])c1O,33 µM (inactive),39.6 µM (inactive),23 µM (inactive),27.5 µM (inactive),48.1 µM (inactive),16.7 µM (inactive),31.8 µM (inactive),,,31.9 µM (inactive),,19.8 µM (inactive),51.5 µM (inactive),24.5 µM (inactive),23.9 µM (inactive)
